Reference: PubChem BioAssay (NCI)
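Five concentrations, 48 hours, 96-well plates. TGI: concentration producing complete growth inhibition.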

Experiments:
Assay in all cases: NCI-60 cell line screen, 48 h
HOP-18 NSCLC = system: HOP-18 NSCLC
DLD-1 colon = system: DLD-1 colon
HCT-116 colon = system: HCT-116 colon
UACC-257 melanoma = system: UACC-257 melanoma
SF-268 CNS = system: SF-268 CNS
SNB-19 CNS = system: SNB-19 CNS
SK-OV-3 ovarian = system: SK-OV-3 ovarian
LOX IMVI melanoma = system: LOX IMVI melanoma
MALME-3M melanoma = system: MALME-3M melanoma
SN12C renal = system: SN12C renal
SK-MEL-2 melanoma = system: SK-MEL-2 melanoma
HT29 colon = system: HT29 colon
NCI-H460 lung = system: NCI-H460 lung
SNB-78 CNS = system: SNB-78 CNS
HOP-92 NSCLC = system: HOP-92 NSCLC
HCT-15 colon = system: HCT-15 colon
A498 renal = system: A498 renal
TK-10 renal = system: TK-10 renal
OVCAR-5 ovarian = system: OVCAR-5 ovarian
SW-620 colon = system: SW-620 colon
NCI-H226 lung = system: NCI-H226 lung
RXF 393 renal = system: RXF 393 renal
SK-MEL-5 melanoma = system: SK-MEL-5 melanoma
XF 498 CNS = system: XF 498 CNS
HCC-2998 colon = system: HCC-2998 colon
HOP-62 NSCLC = system: HOP-62 NSCLC
SR leukemia = system: SR leukemia
SF-295 CNS = system: SF-295 CNS
KM20L2 colon = system: KM20L2 colon
DMS 114 small cell lung = system: DMS 114 small cell lung
U251 CNS = system: U251 CNS
CAKI-1 renal = system: CAKI-1 renal
SNB-75 CNS = system: SNB-75 CNS
ACHN renal = system: ACHN renal
NCI-H23 lung = system: NCI-H23 lung
OVCAR-4 ovarian = system: OVCAR-4 ovarian
SK-MEL-28 melanoma = system: SK-MEL-28 melanoma
LXFL 529 NSCLC = system: LXFL 529 NSCLC
A549 NSCLC = system: A549 NSCLC
KM12 colon = system: KM12 colon
HL-60(TB) leukemia = system: HL-60(TB) leukemia
MOLT-4 leukemia = system: MOLT-4 leukemia
NCI-H522 lung = system: NCI-H522 lung
RPMI-8226 leukemia = system: RPMI-8226 leukemia
M14 melanoma = system: M14 melanoma
DMS 273 small cell lung = system: DMS 273 small cell lung
EKVX NSCLC = system: EKVX NSCLC
OVCAR-8 ovarian = system: OVCAR-8 ovarian
OVCAR-3 ovarian = system: OVCAR-3 ovarian
K-562 leukemia = system: K-562 leukemia
IGROV1 ovarian = system: IGROV1 ovarian
786-0 renal = system: 786-0 renal
COLO 205 colon = system: COLO 205 colon
UACC-62 melanoma = system: UACC-62 melanoma
M19-MEL melanoma = system: M19-MEL melanoma
UO-31 renal = system: UO-31 renal
SF-539 CNS = system: SF-539 CNS
CCRF-CEM leukemia = system: CCRF-CEM leukemia

## N#CC1=C(c2ccccc2)NNC(c2ccc(Cl)cc2)CC1=O (stereo not drawn)
HOP-18 NSCLC
  TGI: > 100 µM
DLD-1 colon
  TGI: > 100 µM
HCT-116 colon
  TGI: > 100 µM
UACC-257 melanoma
  TGI: > 100 µM
SF-268 CNS
  TGI: > 100 µM
SNB-19 CNS
  TGI: > 100 µM
SK-OV-3 ovarian
  TGI: > 100 µM
LOX IMVI melanoma
  TGI: > 100 µM
MALME-3M melanoma
  TGI: > 100 µM
SN12C renal
  TGI: > 100 µM
SK-MEL-2 melanoma
  TGI: 90.4 µM
HT29 colon
  TGI: > 100 µM
NCI-H460 lung
  TGI: > 100 µM
SNB-78 CNS
  TGI: > 100 µM
HOP-92 NSCLC
  TGI: > 100 µM
HCT-15 colon
  TGI: > 100 µM
A498 renal
  TGI: > 100 µM
TK-10 renal
  TGI: > 100 µM
OVCAR-5 ovarian
  TGI: > 100 µM
SW-620 colon
  TGI: > 100 µM
NCI-H226 lung
  TGI: 8.26 µM
RXF 393 renal
  TGI: > 100 µM
SK-MEL-5 melanoma
  TGI: 68.2 µM
XF 498 CNS
  TGI: 77.1 µM
HCC-2998 colon
  TGI: > 100 µM
HOP-62 NSCLC
  TGI: 73.8 µM
SR leukemia
  TGI: > 100 µM
SF-295 CNS
  TGI: 73.1 µM
KM20L2 colon
  TGI: 61.2 µM
DMS 114 small cell lung
  TGI: > 100 µM
U251 CNS
  TGI: > 100 µM
CAKI-1 renal
  TGI: > 100 µM
SNB-75 CNS
  TGI: 41.7 µM
ACHN renal
  TGI: > 100 µM
NCI-H23 lung
  TGI: > 100 µM
OVCAR-4 ovarian
  TGI: > 100 µM
SK-MEL-28 melanoma
  TGI: > 100 µM
LXFL 529 NSCLC
  TGI: > 100 µM
A549 NSCLC
  TGI: > 100 µM
KM12 colon
  TGI: > 100 µM
HL-60(TB) leukemia
  TGI: > 100 µM
MOLT-4 leukemia
  TGI: > 100 µM
NCI-H522 lung
  TGI: 51.7 µM
RPMI-8226 leukemia
  TGI: > 100 µM
M14 melanoma
  TGI: 68.9 µM

## COc1cc(/C=C2\[C@H]3c4c(c(OC)c(C)c(OC)c4OC)CC(C(=O)N2Cc2ccccc2)N3C)c(OC)c(C)c1OC
HOP-18 NSCLC
  TGI: 50.2 µM
DLD-1 colon
  TGI: > 100 µM
DMS 273 small cell lung
  TGI: 38.6 µM
HCT-116 colon
  TGI: > 100 µM
UACC-257 melanoma
  TGI: 39.6 µM
SF-268 CNS
  TGI: 61.3 µM
SNB-19 CNS
  TGI: 73.8 µM
EKVX NSCLC
  TGI: 67.6 µM
OVCAR-8 ovarian
  TGI: > 100 µM
SK-OV-3 ovarian
  TGI: 92 µM
LOX IMVI melanoma
  TGI: 33.4 µM
OVCAR-3 ovarian
  TGI: 31.2 µM
K-562 leukemia
  TGI: 62.1 µM
IGROV1 ovarian
  TGI: 51.6 µM
MALME-3M melanoma
  TGI: 47.3 µM
SN12C renal
  TGI: 33.1 µM
HT29 colon
  TGI: 41.1 µM
NCI-H460 lung
  TGI: 32 µM
786-0 renal
  TGI: 40.6 µM
HOP-92 NSCLC
  TGI: 49.9 µM
COLO 205 colon
  TGI: 32.5 µM
A498 renal
  TGI: 50.1 µM
TK-10 renal
  TGI: 79.2 µM
OVCAR-5 ovarian
  TGI: 71.8 µM
SW-620 colon
  TGI: 41.5 µM
UACC-62 melanoma
  TGI: 30.4 µM
NCI-H226 lung
  TGI: 24 µM
M19-MEL melanoma
  TGI: 33.1 µM
UO-31 renal
  TGI: 41.8 µM
RXF 393 renal
  TGI: > 100 µM
SK-MEL-5 melanoma
  TGI: 33 µM
SF-539 CNS
  TGI: 33.4 µM
HCC-2998 colon
  TGI: 62.8 µM
HOP-62 NSCLC
  TGI: 35.1 µM
CCRF-CEM leukemia
  TGI: 42.5 µM
SR leukemia
  TGI: 74.4 µM
SF-295 CNS
  TGI: 41.5 µM
KM20L2 colon
  TGI: 37.2 µM
U251 CNS
  TGI: 34.7 µM
CAKI-1 renal
  TGI: 73.6 µM
SNB-75 CNS
  TGI: 82.7 µM
ACHN renal
  TGI: 78.7 µM
NCI-H23 lung
  TGI: > 100 µM
OVCAR-4 ovarian
  TGI: > 100 µM
SK-MEL-28 melanoma
  TGI: 64.2 µM
LXFL 529 NSCLC
  TGI: 43.9 µM
A549 NSCLC
  TGI: > 100 µM
KM12 colon
  TGI: > 100 µM
HL-60(TB) leukemia
  TGI: 36 µM
MOLT-4 leukemia
  TGI: 56.9 µM
NCI-H522 lung
  TGI: 30.2 µM
RPMI-8226 leukemia
  TGI: 61.2 µM
M14 melanoma
  TGI: 36 µM
